Assay [1] relates to platelets (human platelet-rich plasma). The assay is described as follows: Platelet aggregation assay (turbidimetric, platelet-rich plasma) induced by collagen, ADP or arachidonic acid. Format: cell-based. From the text:
Antiplatelet activity may be assessed using one or more in vitro (e.g., platelet aggregation) and/or in vivo (e.g., blood clotting time) assays. Antiplatelet activity may be assessed, for example, using a light transmittance aggregometry test based on the stimulation of platelet-platelet aggregation in platelet-rich plasma after stimulation with various agonists (e.g., ADP, α Arachidonic acid, collagen etc). This test has been the most widely used technique to monitor the effects of antiplatelet agents. Agonists and their concentration may be used to produce full aggregation. Under this condition, acetogenins may inhibit aggregation induced by any agonist; their half maximal inhibitory concentration (IC50) value may vary by the agonist used. Percent aggregation inhibition values may be calculated using the following equation: % Inhibition=(Maximal aggregation vehicle control−Maximal aggregation acetogenins)/Maximal aggregation vehicle control×100%. Under a dose-dependent antiplatelet activity, IC50 may represent the concentration of acetogenins required for 50% inhibition of stimulation of platelet aggregation. […]
To confirm the contribution of the isolated acetogenin compounds to antiplatelet activity, their individual activity was evaluated at different concentrations (0.15-15 mM). Aggregation was induced by different agonists that included collagen (5 μg mL−1), ADP (20 μM) and arachidonic acid (500 μM) in an approximation to explore the potential interference of acetogenins with the binding of a particular agonist to its cell surface receptor.
The platelet aggregation (induced by ADP, collagen and arachidonic acid) inhibitory activity of the purified molecules was evaluated was conducted in accordance with the Helsinki Declaration using human blood donated to the blood bank of Instituto Nacional de Cardiología Ignacio Chávez. Blood samples were taken from healthy volunteers who had not taken any medications for at least 2 weeks, or ingested any alcohol for at least 24 h prior to sample collection. Blood was collected by venipuncture into Vacutainer (BD Diagnostics, Plymouth, UK) tubes containing 3.8% sodium citrate as an anticoagulant (at a 9:1 ratio, v/v). Platelet-rich plasma (PRP) and platelet-poor plasma (PPP) were obtained as earlier reported by A. De la Peña, G. Baños, R. Izaguirre, J. J. Mandoki and J. M. Fernández, Comparative effect of synthetic aminoestrogens with estradiol on platelet aggregation, Steroids, 1993, 58(9), 407-409. The assays were carried out within 2 h after the blood had been drawn.
Evaluation of platelet aggregation was performed by turbidimetric measurements according to S. S. Falkenberg, I. Tarnow, A. Guzman, P. Molgaard and H. T. Simonsen, Mapuche herbal medicine inhibits blood platelet aggregation, Evid. Based Complement. Alternat. Med., 2012, 2012, 647620, with some modifications. PRP adjusted with PPP to a platelet count of 2.5×108 mL^−1 (215 μL) was pre-incubated at 37° C. for 10 min with the evaluated sample (10 μL) and at various concentrations.
Platelet aggregation was initiated by the addition of 25 μL of the platelet agonist. The final concentrations of agonists in the reaction mixture were 20 μM ADP, 500 μM arachidonic acid or 5 μg mL^−1 collagen, all obtained from Chrono-PAR. Corporation (Havertown, Pa., USA). Aggregation response was recorded for 10 min using a Chrono-log Model 700 Whole Blood/Optical Lumi-Aggregometer (Chrono-Log, Havertown, Pa., USA). Maximal aggregation (MA) observed for samples containing avocado extracts, at different degrees of purification, was compared to those of vehicle controls (DMSO 2 M) evaluated under the same experimental conditions. Percent aggregation inhibitions, for all samples, were calculated using the following equation: % Inhibition=(MA vehicle control−MA extract)/MA vehicle control×100%. […]

The test system of assay [2] is Male adult CD1 mice. The assay is described as follows: Experimental thrombosis model test (surgical stasis of femoral vasculature). Format: in vivo. Particulars: 25 mg kg−1 single i.p.; thrombosis induced after 24 h. From the text:
Antithrombic activity may be assessed using one or more in vivo (e.g., experimental thrombosis model) assays. For example, after thrombus induction, femoral segments may be removed, fixed, and stained. These segments may be then scored by a pathologist in a double blind manner. Quantitative measurement may be obtained by computerized plannimetry, reaching a quantitative morphological description of structures at the two-dimensional level. Image analysis may be performed using ImageJ software. Minimal occlusion (0.2%) may be observed in controls arteries and test specimens may display thrombus occlusion 40% of the vascular light.
All in vivo experiments were conducted in accordance with the Mexican National Protection Laws on Animal Protection and the General Health Law Related to Health Research (NOM-062-Z00-1999). All procedures were approved by an ethics committee. Male adult CD1 mice weighing 25-35 g were used (obtained from the Animal Care Unit from Facultad de Medicina, UNAM). […]
Additionally, an experimental thrombosis model test was performed by subjecting mice to an acute ischemic challenge. […] 4 μm thick sections were stained with Masson's trichrome and hematoxylin-eosin, and scored by a pathologist for the percentage of thrombus induction based on the occlusion of vascular light.

Assay [3] has as its system Male adult CD1 mice. The assay is described as follows: Blood clotting time test in mice. Format: in vivo. The method, then:
All in vivo experiments were conducted in accordance with the Mexican National Protection Laws on Animal Protection and the General Health Law Related to Health Research (NOM-062-Z00-1999). All procedures were approved by an ethics committee. Male adult CD1 mice weighing 25-35 g were used (obtained from the Animal Care Unit from Facultad de Medicina, UNAM).
Animals were distributed among groups according to a balanced design based on body weight (3 animals per group in each experiment). Room temperature was kept constant (21-24° C.), and with light-dark cycles of 12 h. Food and water were given ad libitum. Persenone-A was dissolved in DMSO (vehicle) and administered intraperitoneally (i.p.). Control animals only received the vehicle (1.66 mL kg−1).
In a blood clotting time test groups of animals received a single i.p. administration of Persenone A (1, 10 or 100 mg kg^−1 of body weight, respectively) or vehicle. Blood clotting time was measured 24 h after administration, as described in R. Jaimez, A. Cooney, K. Jackson, A. E. Lemus, C. […] Time was counted from the instant that blood first made contact with the glass capillary tube and until the blood ceased to flow. […]
The data shown in FIG. 4 is representative of at least three independent experiments. Results were expressed as means±SEM. […]

The mark [4] stands for this setting: Homo sapiens, Platelet, ADP 20 μM, read-out: Half-maximal inhibition concentration (IC50), ADP-induced platelet aggregation.
Setting [5] is: Homo sapiens, Platelet, Arachidonic acid 500 μM, read-out: Half-maximal inhibition concentration (IC50), arachidonic acid-induced platelet aggregation.
Where [6] appears, read: Homo sapiens, Platelet, Collagen 5 μg mL−1, read-out: Half-maximal inhibition concentration (IC50), collagen-induced platelet aggregation.

Where two headings read alike, the source gives them in different places.

Turning to `CC/C=C/CCCCCCCCC/C=C/C(=O)CC(O)COC(C)=O` (stereo not shown) [Acetogenin 3, Persenone-C], the IC50 was 5.23 ± 1.19 mM in assay [1] (Collagen 5 μg mL−1, read-out: Half-maximal inhibition concentration (IC50), collagen-induced platelet aggregation); 5.22 ± 1.19 mM in assay [1] (setting [4]); 7.4 ± 1.2 mM in assay [1] (setting [5]); 3.42 ± 1.56 mM in assay [1] (setting [6]).
In the case of `C=CCCCCCCCCCCC[C@H](O)C[C@H](O)COC(C)=O` [Acetogenin 1, (2S,4S)-1-acetoxy-2,4-dihydroxy-n-heptadeca-16-ene], the figures for the IC50 in assay [1] (setting [4]), in assay [1] (setting [5]) and in assay [1] (setting [6]) were 7.29 ± 1.21 mM, 13.4 ± 1.26 mM and 8.18 mM, respectively. Moreover, the “inhibitory concentration, fold higher than Persenone-C” value in assay [1] (all three agonists (collagen, ADP, arachidonic acid)) is given as above 1.5 fold.
With `CCCCC/C=C\C/C=C\CCCCCCCC(=O)CC(O)COC(C)=O` (stereo not shown) [Acetogenin 6, Persin], the IC50 in assay [1] (setting [4]), in assay [1] (setting [5]) and in assay [1] (setting [6]) was above 15 mM in each case. Besides, the “inhibition of platelet aggregation (in words)” value in assay [1] (any of the evaluated concentrations (0.15-15 mM)) is reported as “did not inhibit platelet aggregation”.
With `C=C/C=C/CCCCCCCCCCCC(=O)CC(O)COC(C)=O` (stereo not shown) [Acetogenin 2, Persediene], the IC50 in assay [1] (setting [4]) is above 15 mM; in assay [1] (setting [5]), above 15 mM; in assay [1] (setting [6]), 12 ± 1.24 mM. Also, in assay [1] (collagen-induced), the “inhibition of collagen-induced aggregation (in words)” value was “inhibited collagen-induced aggregation”.
On to `CC(=O)Oc1ccccc1C(=O)O` [Aspirin, acetylysalicylic acid, reference compound], for which the IC50 in assay [1] (setting [4]) was 3.65 ± 0.07 mM; in assay [1] (setting [5]), 0.07 ± 0.01 mM; in assay [1] (setting [6]), 0.38 ± 0.07 mM; in assay [1] (Homo sapiens, Platelet, arachidonic acid-induced, read-out: IC50, arachidonic acid-induced platelet aggregation (as printed in text)) it was 0.07 ± 0.01 mM. The “IC50 for arachidonic acid-induced aggregation, fold lower than for ADP-induced aggregation” value in assay [1] (arachidonic acid vs ADP) turned out to be 50 fold.
`CCCCC/C=C\C/C=C\CCCCC/C=C/C(=O)CC(O)COC(C)=O` (stereo not shown) [Acetogenin 4, Persenone-A]: the IC50 was 13.5 ± 1.41 mM in assay [1] (setting [4]), above 15 mM in assay [1] (setting [5]) and 8.73 ± 1.25 mM in assay [1] (setting [6]). For the same compound, the inhibition at 15000 µM in assay [1] (Homo sapiens, Platelet, 15 mM, arachidonic acid, read-out: inhibition of arachidonic acid-induced platelet aggregation at the highest concentration) is below 50%. Further, in the assay with Male adult CD1 mice [2], the “decrease in luminal occlusion compared to the stasis group” value is given as 71%. In addition, the “increase in blood clotting time” value in the assay on Male adult CD1 mice [3] (100 mg kg−1 single i.p., measured 24 h after administration, relative to vehicle) is 2 fold. The “EC50 of blood clotting time” value in the assay on Male adult CD1 mice [3] (single i.p., 24 h after administration) is reported as 24.8±1.7 mg kg^−1 of body weight.

The values are drawn from patent US10493057B2, “Acetogenin molecules having antiplatelet and/or antithrombic activities, and methods and compositions thereof” (INSTITUTO TECNOLOGICO Y DE ESTUDIOS SUPERIORES DE MONTERREY, priority 2015, dated 2019).
